{"source": "patent US20150268254A1", "about": "“SEBOCYTE CELL CULTURING AND METHODS OF USE” (Children's Hospital Medical Center, priority 2012, published 2015)", "key": {"sebocytes": {"tested_on": "sebocytes", "conditions": "known effect of reference compound; cited from earlier work"}, "SSG3 cells [1]": {"tested_on": "SSG3 cells", "assay": "Real-time PCR of lipogenic gene expression in primary SSG3 sebocytes", "type": "cell-based, human", "procedure": "To ablate TGFβRII in SSG3 cells, shRNA vectors from the CCHMC Heart Institute lenti-shRNA library core (shRNA TGFβRII #197031 and 194992 and a shRNA control) were used. The human library was purchased from Sigma-Aldrich (MISSION shRNA; St. Louis, Mo.). Viral vector was produced by the Viral Vector Core at the Translational Core Laboratories, Cincinnati Children's Hospital Research Foundation. Cells were grown to 80% confluency in 6-well plates before being infected with the lentivirus for 48 h. Infected cells were selected with 1 µg/ml puromycin (Sigma) for 48 h. Following selection, TGFβRII knock down cells were grown in regular media for 48 h before being activated with 5 ng/ml TGFβ1 for 24 h.\n(§1) Total RNA was isolated using a Rneasy Mini Kit (Qiagen, Germantown, Md.) and used to produce cDNA (Maxima first strand cDNA synthesis kit, Fermentas, Waltham, Mass.). Reverse transcription (RT) reactions were diluted to 10 ng/pl and 1 pl of each RT was used for real-time PCR. Real-time PCR was performed using the CFX96 real-time PCR System, CFX Manager Software and the SsoFast EvaGreen Supermix reagents (Biorad, Hercules, Calif.). All reactions were run in triplicate and analyzed using the […] with relative expression normalized to GAPDH.\n(§2) For Nile red staining, cells or OCT sections were fixed 10 minutes at room temperature in 4% formaldehyde. After 3 wash in 1×PBS, staining with 0.1 pg/ml of Nile red (Sigma) was performed in 0.15M NaCl for 15 minutes at room temperature. For Oil red 0 staining, cells were fixed 15 minutes in 10% formalin, wash with water for 10 minutes and 60% isopropanol before being stained with Oil red 0 (0.7% in 60% isopropanol) for 45 minutes. Cells were rinsed with 60% isopropanol and the nuclei stained with haematoxylin. To trigger differentiation of sebocytes in vitro, linoleic acid (Sigma, 0.1 mM) was added directly to sebocyte media. To prepare cells for extraction of lipids, 20-30 millions of cells were pelleted, washed with 1×PBS and lipid were preserved in the dark at −80° C. under argon until analysis. The qualitative and quantitative composition of lipids in scalp-derived human sebocytes was determined using an Agilent 5973N Gas chromatograph/Mass spectrometer with a SPE cartridge (solid phase extraction) and was performed by Synelvia S.A.S (Labege, France)."}, "SSG3 cells [2]": {"tested_on": "SSG3 cells", "assay": "Lipogenesis assays (Nile red, Oil red O, electron microscopy, Nile red FACS) in SSG3 cells", "type": "cell-based, human", "procedure": "as §2\nCells were cultured in 6-well plates at 80% confluence and infected with the lentivirus expressing the shRNAs as previously described. After puromycin selection for 48 h, cells were washed in 1×PBS and treated with working medium with or without Linoleic acid (0.1 mM) for 24 h. The cells were trypsinized, washed once with 1×PBS and neutral lipids were labeled with the fluorescent dye Nile red (1 pg/ml in PBS). 10,000 cells per sample were analyzed using a FACS Canto I (BD Biosciences) equipped with a blue laser (488 nm excitation).\nCells were grown at 80% confluency in sebocyte media and rinsed once with 0.175M sodium cacodylate buffer. Cells were fixed in 3% glutaraldehyde/0.175M cacodylate buffer for 1 hour at 4° C. Dishes were washed twice with 0.175M sodium cacodylate buffer. Cells were post fixed in 1% osmium tetroxide/cacodylate buffer for 1 hour at 4° C. before being washed three times with 0.175M sodium cacodylate buffer. After the final wash with 1.5 ml, cells were scraped and centrifuged for 5 min at 10K. The cell pellet was then resuspended in 1 ml 1% agarose (Type IX ultra-low gelling tempt, Sigma) overnight at 4° C. The samples were then processed through a graded series of alcohols, infiltrated and embedded in LX-112 resin (Ladd Research, Williston, Vt. After polymerization at 60° C. for three days, ultrathin sections (100 nm) were cut using a Reichert-Jung Ultracut E microtome and counterstained in 2% aqueous uranyl acetate and Reynolds lead citrate. Images were taken with a transmission electron microscope (Hitachi H-6750) equipped with a digital camera (AMT 2k×2K tem CCD)."}, "SEB-1 [3]": {"tested_on": "SEB-1", "assay": "Real-time PCR of PPARγ expression in immortalized sebocyte line SEB-1", "type": "cell-based, human", "conditions": "SEB-1, 0.1 mM linoleic acid, 48 h, vs untreated", "procedure": "as §1\nas §2, with “To trigger differentiation of sebocytes in vitro, linoleic acid (Sigma, 0.1 mM) was added directly to sebocyte media. To prepare cells for extraction of lipids, 20-30 millions of cells were pelleted, washed with 1×PBS and lipid were preserved in the dark at −80° C. under argon until analysis.” left out"}, "[4]": {"tested_on": "sebocytes-derived from breast and face", "assay": "Real-time PCR of lipogenic genes in breast- and face-derived sebocytes", "type": "cell-based, human", "conditions": "5 ng/ml TGFβ1, 24 h", "procedure": "as §1\nRNA was isolated from sebocytes-derived from breast and face untreated or treated with 5 ng/ml of TGFβ1 for 24 h and used for real-time PCR. Two experiments were performed and all qPCR reactions were performed in triplicate. Data were normalized to GAPDH expression for each cell population and changes in relative expression were determined using untreated cells as a reference point."}, "SSG3 sebocytes": {"tested_on": "SSG3 sebocytes", "assay": "Immunoblot of Smad2 phosphorylation in SSG3 sebocytes", "type": "cell-based, human", "conditions": "5 ng/ml TGFβ1, one hour"}, "SEB-1 [5]": {"tested_on": "SEB-1", "assay": "Immunoblot of Smad2 phosphorylation in SEB-1", "type": "cell-based, human", "conditions": "5 ng/ml TGFβ1, one hour"}, "NIKS": {"tested_on": "NIKS", "assay": "Immunoblot of Smad2 phosphorylation in NIKS keratinocytes", "type": "cell-based, human", "conditions": "5 ng/ml TGFβ1, one hour"}, "[6]": {"conditions": "SSG3, 5 ng/ml TGFβ1, 24 h, vs untreated"}, "[7]": {"conditions": "TGFβRII-deficient SSG3 cells, TGFβ1"}}, "data": [{"compound": "C[C@]12CCC(=O)C[C@@H]1CC[C@@H]1[C@@H]2CC[C@]2(C)[C@@H](O)CC[C@@H]12", "note": "[5α-DHT, di-hydrotestosterone]", "values": [{"measurement": "effect on lipogenesis", "setting": "sebocytes", "result": "increase lipogenesis"}, {"measurement": "effect on proliferation", "setting": "sebocytes", "result": "increase proliferation"}]}, {"compound": "CC(=O)O[C@]1(C(C)=O)CC[C@H]2[C@@H]3C=C(Cl)C4=CC(=O)[C@@H]5C[C@@H]5[C@]4(C)[C@H]3CC[C@@]21C", "note": "[Cyproteron acetate]", "values": [{"measurement": "effect on lipogenesis", "setting": "sebocytes", "result": "decrease lipogenesis"}]}, {"compound": "C[C@]12CC[C@H](O)CC1=CC[C@@H]1[C@@H]2CC[C@]2(C)C(=O)CC[C@@H]12", "note": "[DHEA, 5-Dehydroepiandrosterone]", "values": [{"measurement": "effect on lipogenesis", "setting": "sebocytes", "result": "increase lipogenesis"}]}, {"compound": "CC1=C(/C=C/C(C)=C/C=C/C(C)=C\\C(=O)O)C(C)(C)CCC1", "note": "[Isotretinoin, 13-cis retinoic acid]", "values": [{"measurement": "effect on cell cycle", "setting": "sebocytes", "result": "cell cycle arrest"}, {"measurement": "effect on proliferation", "setting": "sebocytes", "result": "anti-proliferative effect on sebocytes"}]}, {"compound": "CN(CCOc1ccc(CC2SC(=O)NC2=O)cc1)c1ccccn1", "note": "(stereo not shown) [Rosglitazone]", "values": [{"measurement": "effect on lipogenesis", "setting": "sebocytes", "result": "decrease lipogenesis"}]}, {"compound": "CCCCC/C=C\\C/C=C\\CCCCCCCC(=O)O", "note": "[linoleic acid]", "values": [{"measurement": "FADS2 expression", "setting": "SSG3 cells [1]; SSG3 cells, 0.1 mM linoleic acid, 24 h and 48 h, vs untreated", "result": "significant increase of FADS2 expression"}, {"measurement": "PPARγ expression", "setting": "SSG3 cells [1]; SSG3 cells, 0.1 mM linoleic acid, 48 h, vs untreated", "result": "increase in PPARγ"}, {"measurement": "Nile red flow cytometry: fluorescence (neutral lipids) and granularity", "setting": "SSG3 cells [2]; SSG3, 0.1 mM linoleic acid, 24 h", "result": "increase of fluorescence and granularity"}, {"measurement": "lipid droplets by electron microscopy", "setting": "SSG3 cells [2]; SSG3, after linoleic acid treatment vs untreated", "result": "increase of lipid droplets with higher electron density"}, {"measurement": "cellular lipid distribution by Nile red stain", "setting": "SSG3 cells [2]; SSG3, two days of linoleic acid treatment (0.1 mM)", "result": "producing lipids"}, {"measurement": "PPARγ expression", "setting": "SEB-1 [3]", "result": "do not show any significant changes"}]}, {"compound": "TGFβ1: exogenously recombinant TGFβ1, Transforming Growth Factor β ligand", "values": [{"measurement": "FADS2 expression", "setting": "[4]", "result": "decreased significantly"}, {"measurement": "PPARγ expression", "setting": "[4]", "result": "decreased significantly"}, {"measurement": "mRNA expression of FADS2", "setting": "SSG3 cells [1]; [6]", "result": "significantly decreased"}, {"measurement": "mRNA expression of PPARγ", "setting": "SSG3 cells [1]; [6]", "result": "significantly decreased"}, {"measurement": "decrease in FADS2 gene expression after TGFβ1", "setting": "SSG3 cells [1]; [7]", "result": "not detected"}, {"measurement": "decrease in PPARγ gene expression after TGFβ1", "setting": "SSG3 cells [1]; [7]", "result": "not detected"}, {"measurement": "TGFβRII expression", "setting": "SSG3 cells [1]; control SSG3 cells treated with TGFβ for 24 h", "result": "decrease of TGFβRII"}, {"measurement": "lipid production", "setting": "SSG3 cells [2]; SSG3 expressing TGFβRII shRNA, TGFβ1 5 ng/ml, 24 h", "result": "no effect on the lipid production"}, {"measurement": "lipid inclusion", "setting": "SSG3 cells [2]; SSG3 with non-targeting shRNA control, TGFβ1 5 ng/ml, 24 h", "result": "decrease in lipid inclusion"}, {"measurement": "Smad2 activation (phosphorylated Smad2)", "setting": "SSG3 sebocytes", "result": "activate Smad2"}, {"measurement": "Smad2 activation (phosphorylated Smad2)", "setting": "SEB-1 [5]", "result": "activate Smad2"}, {"measurement": "Smad2 activation (phosphorylated Smad2)", "setting": "NIKS", "result": "activate Smad2"}]}]}
